Reference: the supplement of paper PMC10307832

Columns and labels:
Test in all cases: relative viability (nuclei count vs DMSO), 5 days (fraction); higher = more cells survive
[1] = compound: C1COCCN1CC2=CC(=O)C(=CO2)OCCCCCSC3=C4C=CC(=CC4=NC=C3)C(F)(F)F [EHT 1864] + Cc1cc(Nc2cc(N3CCN(C)CC3)nc(Sc3ccc(NC(=O)C4CC4)cc3)n2)n[nH]1 [Tozasertib] (partner 0.1 µM)
Procedure, shortened: (§1)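 Nuclei were stained with Hoechst during a one-step fixation (final 0.05% Triton X-100, 1% formaldehyde, 1 ug/ml Hoechst) carried out 5 days after dosing, then counted on 4× images. The cells, lung cancer lines in 1536-well plates, had been dosed by pin tool the day after seeding with one drug alone or a fixed anchor-drug dose plus five library-drug doses (not always all listed) in √10 steps. Relative viability is the nuclei count in treated wells divided by that in vehicle wells, and each value is the median of duplicate plates.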

[2] = compound: C1COCCN1CC2=CC(=O)C(=CO2)OCCCCCSC3=C4C=CC(=CC4=NC=C3)C(F)(F)F [EHT 1864] + CC(C)C[C@H](NC(=O)[C@H](Cc1ccccc1)NC(=O)c1cnccn1)B(O)O [Bortezomib] (partner 0.002 µM)
Procedure, shortened: as §1

[3] = compound: C1COCCN1CC2=CC(=O)C(=CO2)OCCCCCSC3=C4C=CC(=CC4=NC=C3)C(F)(F)F [EHT 1864] + Nc1ncn([C@H]2C[C@H](O)[C@@H](CO)O2)c(=O)n1 [Decitabine] (partner 2 µM)
Procedure, shortened: as §1

[4] = compound: C1COCCN1CC2=CC(=O)C(=CO2)OCCCCCSC3=C4C=CC(=CC4=NC=C3)C(F)(F)F [EHT 1864] + NC(=O)Nc1cc(-c2cccc(F)c2)sc1C(=O)N[C@H]1CCCNC1 [AZD7762] (partner 0.2 µM)
Procedure, shortened: as §1

Cell Line	relative viability ([1]; first compound 0.04 µM)	relative viability ([1]; first compound 0.4 µM)	relative viability ([1]; first compound 1.265 µM)	relative viability ([1]; first compound 4 µM)	relative viability ([2]; first compound 0.04 µM)	relative viability ([2]; first compound 0.4 µM)	relative viability ([2]; first compound 1.265 µM)	relative viability ([2]; first compound 4 µM)	relative viability ([3]; first compound 0.04 µM)	relative viability ([3]; first compound 0.4 µM)	relative viability ([3]; first compound 1.265 µM)	relative viability ([3]; first compound 4 µM)	relative viability ([4]; first compound 0.04 µM)	relative viability ([4]; first compound 0.4 µM)	relative viability ([4]; first compound 1.265 µM)	relative viability ([4]; first compound 4 µM)	relative viability ([1]; first compound 0.1265 µM)	relative viability ([2]; first compound 0.1265 µM)	relative viability ([3]; first compound 0.1265 µM)	relative viability ([4]; first compound 0.1265 µM)
HOP-62	0.391	0.376	0.333	0.374	1.18	0.618	1.08	0.986	0.225	0.202	0.241	0.246	0.584	0.466	0.485	0.794	–	–	–	–
LU99A	0.295	0.253	0.244	0.216	1.06	1.06	1.25	1.13	0.843	0.827	0.903	0.872	0.445	0.359	0.308	0.403	0.254	0.672	0.757	0.203
NCI-H647	0.218	0.414	0.175	0.132	0.808	0.954	0.934	1.04	0.32	0.311	0.453	0.404	0.621	0.661	0.44	0.461	0.169	0.753	0.288	0.296
A-427	0.198	0.208	0.189	0.217	1.06	0.944	0.931	0.863	0.566	0.548	0.564	0.59	0.835	0.738	0.762	0.791	0.232	1.02	0.572	0.775
NCI-H441	0.55	0.596	0.507	0.481	0.381	0.505	0.447	0.285	0.246	0.241	0.234	0.241	1.01	1.04	1.11	1.5	0.544	0.372	–	–
NCI-H2126	0.839	0.819	0.8	0.81	1.16	1.11	1.09	1	0.652	0.547	0.62	0.566	1.02	0.95	0.93	0.957	0.689	1.1	0.572	0.866
HCC-44	0.919	0.878	0.771	0.926	0.968	0.812	0.851	0.876	0.951	0.914	0.981	0.987	1.01	0.934	1.03	1.01	0.827	0.757	0.797	0.896
NCI-H460	0.398	0.384	0.174	0.152	1.01	0.993	0.994	0.905	–	0.495	0.43	0.255	0.642	0.635	0.436	0.568	0.453	1.1	0.405	0.541
NCI-H322M	0.477	0.448	0.461	0.51	1.22	1.23	1.27	1.25	0.659	0.698	0.679	0.724	0.601	0.589	0.577	0.667	0.457	1.2	0.692	0.501
EKVX	0.4	0.369	0.351	0.349	0.995	0.971	0.818	0.977	0.372	0.317	0.329	0.381	0.685	0.484	0.764	0.684	0.371	0.984	0.333	0.661
NCI-H1734	0.282	0.265	0.273	0.259	1.09	0.914	0.902	0.901	0.495	0.478	0.511	0.514	0.65	0.537	0.611	0.618	–	0.788	0.552	0.427
ABC-1	0.15	0.185	0.189	0.195	0.32	0.316	0.371	0.303	1.35	1.15	0.881	0.901	0.977	0.623	0.843	1.52	0.164	0.306	0.91	0.805
EPLC-272H	0.299	0.143	0.314	0.284	0.774	0.839	0.823	0.977	0.406	0.405	0.355	0.396	0.387	0.267	0.259	0.236	0.352	0.63	0.359	0.379
NCI-H1993	0.581	0.549	0.575	0.536	0.973	1.06	1.01	1.06	0.552	0.598	0.645	0.57	0.71	0.827	0.775	0.83	–	0.733	–	–
NCI-H596	0.843	0.869	1.06	0.754	0.836	0.976	1.01	1.05	0.937	1.14	1.09	1.24	1.21	1.1	1.04	1.46	0.733	0.637	1.05	1.04
HCC-827	0.415	0.408	0.449	0.4	1.1	0.999	1.11	0.985	0.332	0.319	0.399	0.317	0.198	0.228	0.252	0.201	0.348	0.844	0.291	0.22
ChaGo-K-1	0.215	0.228	0.207	0.204	0.939	0.997	–	0.965	0.584	0.527	0.477	0.531	0.881	0.956	0.871	0.907	0.221	1.05	0.501	0.834
